Several values for one entry are separate records, joined by “and”; a condition that tells them apart may be missing. Equal entries are not always repeated.
Columns and labels:
Gallus gallus = species on record: Gallus gallus; assay: The compound was evaluated for neurite outgrowth from chick dorsal root ganglia; assay type: functional
[1] = molecular target: Peptidyl-prolyl cis-trans isomerase FKBP1A (Homo sapiens, UniProt P62942); assay: The compound was tested for binding affinity against rotamase
Peptidyl-prolyl cis-trans isomerase FKBP1A, sequence (P62942 whole entry): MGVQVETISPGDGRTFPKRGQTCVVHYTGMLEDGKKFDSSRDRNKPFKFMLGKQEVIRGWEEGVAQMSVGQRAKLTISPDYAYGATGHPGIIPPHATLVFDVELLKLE

Structure (SMILES)	ED50 (Gallus gallus) [nM]	Ki [1]
CCC(C)(C)C(=O)C(=O)N1CCCC[C@H]1C(=O)O[C@H](CCc1ccccc1)c1ccccc1	0.3	
CCC(C)(C)C(=O)C(=O)N1CCC[C@H]1C(=O)OCCCc1ccccc1	53	
CCC(C)(C)C(=O)C(=O)N1CCCC[C@H]1C(=O)OCCCc1ccccc1	300	250 nM and 110 nM
CCC(C)(C)C(=O)C(=O)N1CCCC[C@H]1C(=O)OCCCc1cccnc1	8.5	165 nM
CCC(C)(C)C(=O)C(=O)N1CCC[C@H]1C(=O)OCCCc1cccnc1 [GPI-1046]	0.05	

Source: ChEMBL document CHEMBL1131310 (J Med Chem, 1998)
